# Tests used:
# [1] = target: T1, Solute carrier organic anion transporter family member 1A2 (OATP1A2) (Homo sapiens, UniProt P46721); assay: (§1) TP_TRANSPORTER: uptake in Xenopus laevis oocytes; format: functional, cell-based, Oocyte; settings: Xenopus laevis oocytes expressing the transporter
# T1 sequence (P46721 whole entry): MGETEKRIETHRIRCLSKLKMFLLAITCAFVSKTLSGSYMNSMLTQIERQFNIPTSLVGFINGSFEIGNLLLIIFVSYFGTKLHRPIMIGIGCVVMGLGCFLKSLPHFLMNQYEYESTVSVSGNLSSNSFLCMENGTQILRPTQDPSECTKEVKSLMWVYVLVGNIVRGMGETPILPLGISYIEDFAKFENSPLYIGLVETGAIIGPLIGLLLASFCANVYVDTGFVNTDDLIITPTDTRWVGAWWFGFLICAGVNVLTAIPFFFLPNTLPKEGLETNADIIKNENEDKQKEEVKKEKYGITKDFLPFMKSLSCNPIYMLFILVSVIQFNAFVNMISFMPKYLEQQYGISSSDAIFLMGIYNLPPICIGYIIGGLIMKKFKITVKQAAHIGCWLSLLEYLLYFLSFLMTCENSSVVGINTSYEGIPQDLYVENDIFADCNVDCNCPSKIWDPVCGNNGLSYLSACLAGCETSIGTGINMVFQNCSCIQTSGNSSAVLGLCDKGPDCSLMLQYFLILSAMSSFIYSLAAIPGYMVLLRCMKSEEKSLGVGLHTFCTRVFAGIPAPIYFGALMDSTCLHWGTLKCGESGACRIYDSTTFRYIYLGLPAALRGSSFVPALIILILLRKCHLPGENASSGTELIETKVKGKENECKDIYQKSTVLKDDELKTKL
# [2] = target: T2, Solute carrier organic anion transporter family member 1A1 (Rattus norvegicus, UniProt P46720); assay: as §1; format: functional, cell-based; settings: oocyte
# T2 sequence (P46720 whole entry): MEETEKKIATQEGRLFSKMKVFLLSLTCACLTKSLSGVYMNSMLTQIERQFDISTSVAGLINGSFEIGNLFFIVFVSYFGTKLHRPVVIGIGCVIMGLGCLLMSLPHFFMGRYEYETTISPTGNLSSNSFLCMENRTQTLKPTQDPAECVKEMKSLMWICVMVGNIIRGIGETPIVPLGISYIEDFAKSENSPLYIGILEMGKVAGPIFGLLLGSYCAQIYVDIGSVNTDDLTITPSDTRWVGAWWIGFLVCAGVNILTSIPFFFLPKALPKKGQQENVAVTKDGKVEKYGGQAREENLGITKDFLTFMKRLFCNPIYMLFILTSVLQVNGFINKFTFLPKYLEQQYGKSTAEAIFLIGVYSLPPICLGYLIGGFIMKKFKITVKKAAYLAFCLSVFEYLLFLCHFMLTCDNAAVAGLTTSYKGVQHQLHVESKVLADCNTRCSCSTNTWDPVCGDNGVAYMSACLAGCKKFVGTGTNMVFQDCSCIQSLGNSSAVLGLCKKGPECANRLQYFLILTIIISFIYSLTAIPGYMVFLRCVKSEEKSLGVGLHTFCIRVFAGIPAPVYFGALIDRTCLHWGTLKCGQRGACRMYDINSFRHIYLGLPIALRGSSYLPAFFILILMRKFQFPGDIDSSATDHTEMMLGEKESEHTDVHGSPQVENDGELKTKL
# [3] = target: T3, Solute carrier organic anion transporter family member 1A4 (Rattus norvegicus, UniProt O35913); assay: as §1; format: functional, cell-based; settings: oocyte
# T3 sequence (O35913 whole entry): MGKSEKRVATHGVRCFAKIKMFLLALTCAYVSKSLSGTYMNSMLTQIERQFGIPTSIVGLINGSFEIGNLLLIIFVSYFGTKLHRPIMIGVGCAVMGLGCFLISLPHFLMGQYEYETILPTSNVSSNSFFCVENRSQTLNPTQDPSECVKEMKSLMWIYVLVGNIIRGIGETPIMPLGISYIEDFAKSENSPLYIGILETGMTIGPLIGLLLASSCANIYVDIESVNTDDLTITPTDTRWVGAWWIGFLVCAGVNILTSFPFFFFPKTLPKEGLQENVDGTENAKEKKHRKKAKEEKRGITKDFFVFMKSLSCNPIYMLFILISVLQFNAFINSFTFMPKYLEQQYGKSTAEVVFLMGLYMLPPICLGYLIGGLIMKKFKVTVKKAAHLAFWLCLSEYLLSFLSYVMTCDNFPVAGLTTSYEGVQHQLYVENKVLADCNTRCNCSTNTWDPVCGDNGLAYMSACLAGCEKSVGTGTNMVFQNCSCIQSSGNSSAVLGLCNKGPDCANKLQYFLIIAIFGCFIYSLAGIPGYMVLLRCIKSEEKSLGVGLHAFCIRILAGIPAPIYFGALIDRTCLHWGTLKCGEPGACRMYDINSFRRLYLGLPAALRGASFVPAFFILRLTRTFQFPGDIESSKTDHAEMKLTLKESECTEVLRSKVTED
# [4] = target: T4, Solute carrier organic anion transporter family member 1A2 (Homo sapiens, UniProt P46721); assay: as §1; format: functional, cell-based, Oocyte; settings: oocyte
# T4 sequence (P46721 whole entry): T1 sequence (P46721 whole entry)
Structure (SMILES),Km [1] [µM],Activity [2],Activity [3],Activity [4]
C=C[C@H]1C[N+]2(C)CC[C@H]1C[C@@H]2[C@@H](O)c1ccnc2ccc(OC)cc12,25.6,is not a substrate [-],is not a substrate [-],
CCC1C[N+]2(CCCC3(C)N=N3)C3CC45c6ccccc6N(C)C4C2CC1C3C5O (configuration not stated),,substrate [+],substrate [+],substrate [+]
C=C[C@H]1C[N+]2(C)CC[C@H]1C[C@H]2[C@H](O)c1ccnc2ccc(OC)cc12,5.1,substrate [+],is not a substrate [-],
C=CC[N+]1([C@H]2C[C@H]3[C@@H]4CC[C@H]5C[C@H](O)[C@@H](N6CCOCC6)C[C@]5(C)[C@H]4CC[C@]3(C)[C@H]2OC(C)=O)CCCC1 [ROCURONIUM],,substrate [+],substrate [+],substrate [+]

# Reference: ChEMBL document CHEMBL2074320, “Polyspecific organic anion transporting polypeptides mediate hepatic uptake of amphipathic type II organic cations” (J Pharmacol Exp Ther, 1999)
